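Cells were grown in 96-well plates and exposed to each compound for 48 hours at five concentrations; endpoints were interpolated linearly between bracketing concentrations, or set to the highest concentration if not reached. Abbreviation: GI50, concentration required for 50% inhibition of growth. Definition used: TGI = concentration required for complete inhibition of growth.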
Legend:
Experiment in all cases: NCI anticancer screen, dose series, 48 h
786-0 renal = system: 786-0 renal
A498 renal = system: A498 renal
A549 NSCLC = system: A549 NSCLC
ACHN renal = system: ACHN renal
BT-549 breast = system: BT-549 breast
CAKI-1 renal = system: CAKI-1 renal
CCRF-CEM leukemia = system: CCRF-CEM leukemia
COLO 205 colon = system: COLO 205 colon
DU-145 prostate = system: DU-145 prostate
EKVX NSCLC = system: EKVX NSCLC
HCC-2998 colon = system: HCC-2998 colon
HCT-116 colon = system: HCT-116 colon
HCT-15 colon = system: HCT-15 colon
HL-60(TB) leukemia = system: HL-60(TB) leukemia
HOP-62 NSCLC = system: HOP-62 NSCLC
HS 578T breast = system: HS 578T breast
HT29 colon = system: HT29 colon
IGROV1 ovarian = system: IGROV1 ovarian
K-562 leukemia = system: K-562 leukemia
KM12 colon = system: KM12 colon
LOX IMVI melanoma = system: LOX IMVI melanoma
M14 melanoma = system: M14 melanoma
MALME-3M melanoma = system: MALME-3M melanoma
MCF7 breast = system: MCF7 breast
MDA-MB-231 breast = system: MDA-MB-231 breast
MDA-MB-435 = system: MDA-MB-435
MOLT-4 leukemia = system: MOLT-4 leukemia
NCI-H226 lung = system: NCI-H226 lung
NCI-H23 lung = system: NCI-H23 lung
NCI-H460 lung = system: NCI-H460 lung
NCI-H522 lung = system: NCI-H522 lung
NCI/ADR-RES ovarian = system: NCI/ADR-RES ovarian
OVCAR-3 ovarian = system: OVCAR-3 ovarian
OVCAR-4 ovarian = system: OVCAR-4 ovarian
OVCAR-5 ovarian = system: OVCAR-5 ovarian
OVCAR-8 ovarian = system: OVCAR-8 ovarian
PC-3 prostate = system: PC-3 prostate
RPMI-8226 leukemia = system: RPMI-8226 leukemia
RXF 393 renal = system: RXF 393 renal
SF-268 CNS = system: SF-268 CNS
SF-295 CNS = system: SF-295 CNS
SF-539 CNS = system: SF-539 CNS
SK-MEL-2 melanoma = system: SK-MEL-2 melanoma
SK-MEL-28 melanoma = system: SK-MEL-28 melanoma
SK-MEL-5 melanoma = system: SK-MEL-5 melanoma
SK-OV-3 ovarian = system: SK-OV-3 ovarian
SN12C renal = system: SN12C renal
SNB-19 CNS = system: SNB-19 CNS
SNB-75 CNS = system: SNB-75 CNS
SW-620 colon = system: SW-620 colon
T-47D breast = system: T-47D breast
TK-10 renal = system: TK-10 renal
U251 CNS = system: U251 CNS
UACC-257 melanoma = system: UACC-257 melanoma
UACC-62 melanoma = system: UACC-62 melanoma
UO-31 renal = system: UO-31 renal

Question: What does the source list for `Clc1ccc2c(NCCN3CCN(c4ccnc(N5CCCC5)n4)CC3)ccnc2c1`?
Answer: GI50 (786-0 renal): 3.32 µM; TGI (786-0 renal): 11.1 µM; GI50 (A498 renal): 2.39 µM; TGI (A498 renal): 8.51 µM; GI50 (A549 NSCLC): 4.23 µM; TGI (A549 NSCLC): 16.8 µM; GI50 (ACHN renal): 2.68 µM; TGI (ACHN renal): 8.01 µM; GI50 (BT-549 breast): 5.63 µM; TGI (BT-549 breast): 19.4 µM; GI50 (CAKI-1 renal): 2.69 µM; TGI (CAKI-1 renal): 10.3 µM; GI50 (CCRF-CEM leukemia): 3.65 µM; TGI (CCRF-CEM leukemia): 32.3 µM; GI50 (COLO 205 colon): 1.63 µM; TGI (COLO 205 colon): 3.59 µM; GI50 (DU-145 prostate): 5.71 µM; TGI (DU-145 prostate): 20.3 µM; GI50 (EKVX NSCLC): 10.2 µM; TGI (EKVX NSCLC): 24.4 µM; GI50 (HCC-2998 colon): 1.94 µM; TGI (HCC-2998 colon): 4.08 µM; GI50 (HCT-116 colon): 2.51 µM; TGI (HCT-116 colon): 10.4 µM; GI50 (HCT-15 colon): 2.1 µM; TGI (HCT-15 colon): 7.57 µM; GI50 (HL-60(TB) leukemia): 2.37 µM; TGI (HL-60(TB) leukemia): 6.25 µM; GI50 (HOP-62 NSCLC): 3.34 µM; TGI (HOP-62 NSCLC): 16.2 µM; GI50 (HS 578T breast): 3.54 µM; TGI (HS 578T breast): 19.8 µM; GI50 (HT29 colon): 1.34 µM; TGI (HT29 colon): 12.2 µM; GI50 (IGROV1 ovarian): 4.48 µM; TGI (IGROV1 ovarian): 23.7 µM; GI50 (K-562 leukemia): 1.47 µM; TGI (K-562 leukemia): 9.76 µM; GI50 (KM12 colon): 4.02 µM; TGI (KM12 colon): 17.4 µM; GI50 (LOX IMVI melanoma): 1.72 µM; TGI (LOX IMVI melanoma): 3.55 µM; GI50 (M14 melanoma): 1.91 µM; TGI (M14 melanoma): 3.61 µM; GI50 (MALME-3M melanoma): 1.91 µM; TGI (MALME-3M melanoma): 3.74 µM; GI50 (MCF7 breast): 1.96 µM; TGI (MCF7 breast): 8.04 µM; GI50 (MDA-MB-231 breast): 2.06 µM; TGI (MDA-MB-231 breast): 5.89 µM; GI50 (MDA-MB-435): 1.96 µM; TGI (MDA-MB-435): 4.54 µM; GI50 (MOLT-4 leukemia): 3.58 µM; TGI (MOLT-4 leukemia): 38.2 µM; GI50 (NCI-H226 lung): 21.8 µM; TGI (NCI-H226 lung): 41 µM; GI50 (NCI-H23 lung): 6.88 µM; TGI (NCI-H23 lung): 22.7 µM; GI50 (NCI-H460 lung): 3.25 µM; TGI (NCI-H460 lung): 10.1 µM; GI50 (NCI-H522 lung): 3.27 µM; TGI (NCI-H522 lung): 11.1 µM; GI50 (NCI/ADR-RES ovarian): 4.12 µM; TGI (NCI/ADR-RES ovarian): 18.1 µM; GI50 (OVCAR-3 ovarian): 5.3 µM; TGI (OVCAR-3 ovarian): 21.2 µM; GI50 (OVCAR-4 ovarian): 3.87 µM; TGI (OVCAR-4 ovarian): 28.2 µM; GI50 (OVCAR-5 ovarian): 5.1 µM; TGI (OVCAR-5 ovarian): 21.4 µM; GI50 (OVCAR-8 ovarian): 4.39 µM; TGI (OVCAR-8 ovarian): 18.5 µM; GI50 (PC-3 prostate): 5.97 µM; TGI (PC-3 prostate): 20.8 µM; GI50 (RPMI-8226 leukemia): 2.48 µM; TGI (RPMI-8226 leukemia): 7.08 µM; GI50 (RXF 393 renal): 1.42 µM; TGI (RXF 393 renal): 3.93 µM; GI50 (SF-268 CNS): 2.73 µM; TGI (SF-268 CNS): 11.5 µM; GI50 (SF-295 CNS): 2.37 µM; TGI (SF-295 CNS): 5.44 µM; GI50 (SF-539 CNS): 1.73 µM; TGI (SF-539 CNS): 3.67 µM; GI50 (SK-MEL-2 melanoma): 2.61 µM; TGI (SK-MEL-2 melanoma): 6.77 µM; GI50 (SK-MEL-28 melanoma): 1.77 µM; TGI (SK-MEL-28 melanoma): 3.66 µM; GI50 (SK-MEL-5 melanoma): 1.79 µM; TGI (SK-MEL-5 melanoma): 3.19 µM; GI50 (SK-OV-3 ovarian): 11.8 µM; TGI (SK-OV-3 ovarian): 34.2 µM; GI50 (SN12C renal): 4.86 µM; TGI (SN12C renal): 19.1 µM; GI50 (SNB-19 CNS): 7.06 µM; TGI (SNB-19 CNS): 28.7 µM; GI50 (SNB-75 CNS): 1.76 µM; TGI (SNB-75 CNS): 7.62 µM; GI50 (SW-620 colon): 2.05 µM; TGI (SW-620 colon): 4.31 µM; GI50 (T-47D breast): 2.01 µM; TGI (T-47D breast): 5.59 µM; GI50 (TK-10 renal): 3.9 µM; TGI (TK-10 renal): 21.3 µM; GI50 (U251 CNS): 3.09 µM; TGI (U251 CNS): 10.1 µM; GI50 (UACC-257 melanoma): 2.29 µM; TGI (UACC-257 melanoma): 4.35 µM; GI50 (UACC-62 melanoma): 2.13 µM; TGI (UACC-62 melanoma): 4.51 µM; GI50 (UO-31 renal): 1.82 µM; TGI (UO-31 renal): 4.47 µM

— PubChem BioAssay (NCI)
